According to patent US9206177B2, “Substituted dimeric quinazoline-2,4-diones as FGF receptor agonists” (Sanofi, priority 2011, dated 2015):

Key:
[1] = system: mice; assay: Sponge angiogenesis model (haemoglobin content of implanted cellulose sponge); type: in vivo; conditions: at a concentration of 300 μM
Text: Sponge Angiogenesis Model
The sponge angiogenesis model is an adaptation of the technique of Andrade et al. [Andrade S P, Machado R., Teixeiras, Belo A V, Tarso A M, Beraldo W T—Sponge-induced angiogenesis in mice and the pharmacological reactivity of the neovasculature quantitated by fluorimetric method, Microvascular Research, 1997, 54: 253-61.]
The mice used are BalbC females from Charles River Laboratory, 7 to 10 weeks old. The animals are anaesthetized by intraperitoneal injection of a xylazine/ketamine mixture (1 mg/kg each in 0.9% NaCl). The animal's back is shaved and disinfected with hexomedine. A subcutaneous 5 ml pocket of air is made on the animal's back with sterile air. An incision is then made (approximately 1 cm) on the top of the animal's back in order to implant the sponge in the pocket. The biocompatible cellulose sponge (Cellspon, Interchim, 10 mm in diameter) was sterilized beforehand (autoclave 20 min at 120° C.) and is impregnated with 50 μl of sterile solution containing the test product. Suturing is performed by inserting two 9-mm stainless steel autoclip staples (Subra). The wound is again disinfected with hexomedine. […]
To assay the haemoglobin, 50 μl of each sample are deposited in a 96-well plate, in duplicate. […] The OD values are read on a spectrophotometer at 405 nm, using the Biolise software (Tecan, France). […]

[2] = system: human venous endothelial cells (HUVECs); assay: In vitro angiogenesis model (pseudotubule length of HUVECs on matrigel/collagen); type: cell-based; design: % activation with respect to FGF2 (in vitro): concentration or dose not given beside the values; conditions: in vitro; for % activation with respect to FGF2 (in vitro): relative to FGF2
Protocol: In Vitro Angiogenesis Model
The products are tested for their ability to cause rearrangement of human venous endothelial cells (HUVECs) on matrigel (Becton dickinson 356230) diluted in collagen (rat tail collagen, type I: Becton dickinson 354236). After 24 hours, the cells are observed under a microscope with a ×4 objective and the length of the pseudotubules is measured by means of an image analyser (BIOCOM-logiciel Visiolab 2000).

Row | SMILES | active on the in vitro angiogenesis model (sentence stands under the sponge angiogenesis model) [1] | EC50 [2] | % activation with respect to FGF2 (in vitro) [2] | EC50 ([2]; Homo sapiens, HUVEC)
1 | Cc1c(-c2ccc(OCC(=O)NCCCCCCNC(=O)COc3ccc(-c4c(C)c(C(=O)c5ccc6[nH]c(=O)n(CC(=O)O)c(=O)c6c5)n5ccccc45)cc3)cc2)c2ccccn2c1C(=O)c1ccc2[nH]c(=O)n(CC(=O)O)c(=O)c2c1 [Compound 4] | active | < 1 nM | 57% | –
2 | Cc1c(-c2cccc(OCCOCCOCCOCCOc3cccc(-c4c(C)c(C(=O)c5ccc6[nH]c(=O)n(CC(=O)O)c(=O)c6c5)n5ccccc45)c3)c2)c2ccccn2c1C(=O)c1ccc2[nH]c(=O)n(CC(=O)O)c(=O)c2c1 [Compound 2, 2,2′-{oxybis[ethane-2,1-diyloxyethane-2,1-diyloxybenzene-3,1-diyl(2-methylindolizine-1,3-diyl)carbonyl(2,4-dioxo-1,4-dihydroquinazoline-6,3(2H)-diyl)]}diacetic acid] | – | – | 44% | < 1 nM
